Test results published in patent publication US7342039B2, “Substituted indole oximes” (Wyeth, priority 2003, dated 2008).

What was measured:
human PAI-1 = human PAI-1 (Homo sapiens, UniProt P05121); assay: Assay for determining the IC50 of inhibition of PAI-1 (antibody detection of active PAI-1 bound to tPA-coated plate); assay type: binding; settings: human PAI-1 50 ng/ml, pH 7.5
Protocol: Assay for determining the IC50 of inhibition of PAI-1. This assay is based upon the non-SDS dissociable interaction between tPA and active PAI-1. Assay plates are initially coated with human tPA (10 μg/ml). Test compounds are dissolved in DMSO at 10 mM, then diluted with physiologic buffer (pH 7.5) to a final concentration of 1-50 μM. The test compounds are incubated with human PAI-1 (50 ng/ml) for 15 minutes at room temperature. The tPA-coated plate is washed with a solution of 0.05% Tween 20 and 0.1% BSA, then the plate is blocked with a solution of 3% BSA. An aliquot of the test compound/PAI-1 solution is then added to the tPA-coated plate, incubated at room temperature for 1 hour, and washed. Active PAI-1 bound to the plate is assessed by adding an aliquot of a 1:1000 dilution of the 33B8 monoclonal antibody against human PAI-1, and incubating the plate at room temperature for 1 hour (Molecular Innovations, Royal Oak, Mich.). The plate is again washed, and a solution of goat anti-mouse IgG-alkaline phosphatase conjugate is added at a 1:50,000 dilution in goat serum. The plate is incubated 30 minutes at room temperature, washed, and a solution of alkaline phosphatase substrate is added. The plate is incubated 45 minutes at room temperature, and color development is determined at OD405 nm. The quantitation of active PAI-1 bound to tPA at varying concentrations of the test compound is used to determine the IC50. Results are analyzed using a logarithmic best-fit equation. The assay sensitivity is 5 ng/ml of human PAI-1 as determined from a standard curve ranging from 0-100 ng/ml.

[1] = biological target: T1, recombinant human plasminogen activator inhibitor-1 (PAI-1) (Homo sapiens, UniProt P05121); assay: Screening for PAI-1 inhibition (chromogenic residual tPA activity, Spectrozyme-tPA); assay type: biochemical; settings: 25 μM test compound; 140 nM PAI-1, 70 nM tPA, pH 6.6
T1 construct: purchased Molecular Innovations, Royal Oak, Mich
Protocol: Screening for PAI-1 inhibition. Test compounds are dissolved in DMSO at a final concentration of 10 mM, then diluted 100× in physiologic buffer. The inhibitory assay is initiated by the addition of the test compound (1-100 μM final concentration, maximum DMSO concentration of 0.2%) in a pH 6.6 buffer containing 140 nM recombinant human plasminogen activator inhibitor-1 (PAI-1; Molecular Innovations, Royal Oak, Mich.). Following a 1 hour incubation at room temperature, 70 nM of recombinant human tissue plasminogen activator (tPA) is added, and the combination of the test compound, PAI-1 and tPA is incubated for an additional 30 minutes. Following the second incubation, Spectrozyme-tPA (American Diagnostica, Greenwich, Conn.), a chromogenic substrate for tPA, is added and absorbance read at 405 nm at 0 and 60 minutes. Relative PAI-1 inhibition is equal to the residual tPA activity in the presence of the test compounds and PAI-1. Control treatments include the complete inhibition of tPA by PAI-1 at the molar ratio employed (2:1), and the absence of any effect of the test compound on tPA alone.

Sequence of human PAI-1 (P05121 24-402): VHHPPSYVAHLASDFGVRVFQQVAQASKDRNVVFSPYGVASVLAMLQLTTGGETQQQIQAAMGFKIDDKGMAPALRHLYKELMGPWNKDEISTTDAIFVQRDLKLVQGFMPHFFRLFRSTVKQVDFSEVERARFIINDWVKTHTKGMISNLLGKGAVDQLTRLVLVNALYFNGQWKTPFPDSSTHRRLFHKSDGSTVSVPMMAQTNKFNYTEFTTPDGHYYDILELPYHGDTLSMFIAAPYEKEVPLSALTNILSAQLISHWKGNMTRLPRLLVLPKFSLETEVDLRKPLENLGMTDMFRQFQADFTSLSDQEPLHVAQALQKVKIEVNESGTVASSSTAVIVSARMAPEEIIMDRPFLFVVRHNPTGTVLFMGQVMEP
T1 sequence (P05121 24-402): as above

| Structure (SMILES) | melting point | IC50 (human PAI-1) | inhibition at 25 µM [1] |
| --- | --- | --- | --- |
| O=C(O)c1ccc(OCCCO/N=C/c2cc3ccccc3n2Cc2ccccc2)cc1O [Compound 5, 4-[3-({[(1E)-(1-benzyl-1H-indol-2-yl)methylidene]amino}oxy)propoxy]-2-hydroxybenzoic acid] | 175 to 176 °C (dec.) | 22.4 µM |  |
| O=C(O)c1ccc(OCCCO/N=C/c2cn(Cc3ccccc3)c3ccccc23)cc1O [Compound 2, 4-[3-({[(1E)-(1-benzyl-1H-indol-3-yl)methylidene]amino}oxy)propoxy]-2-hydroxybenzoic acid] |  | 21.6 µM |  |
| CC(C)(C)c1ccc(C(=O)Nc2cc(OCCCO/N=C/c3cn(Cc4ccccc4)c4ccccc34)ccc2C(=O)O)cc1 [Compound 1, 4-[3-({[(1E)-(1-benzyl-1H-indol-3-yl)methylidene]amino}oxy)propoxy]-2-[(4-tert-butylbenzoyl)amino]benzoic acid] |  | 11.8 µM |  |
| O=C(O)c1ccc(CO/N=C/c2cn(Cc3ccccc3)c3ccccc23)cc1Br [Compound 3, 4-[({[(1E)-(1-benzyl-1H-indol-3-yl)methylidene]amino}oxy)methyl]-2-bromobenzoic acid] |  | 29.2 µM |  |
| O=C(O)c1ccc(CO/N=C/c2cc3ccccc3n2Cc2ccccc2)cc1Br [Compound 4, 4-[({[(1E)-(1-benzyl-1H-indol-2-yl)methylidene]amino}oxy)methyl]-2-bromobenzoic acid] | 148 to 149 °C | 12.3 µM |  |

Results, then the compound that gave them:

| melting point | IC50 (human PAI-1) | inhibition at 25 µM [1] | Structure (SMILES) |
| --- | --- | --- | --- |
| 165 to 166 °C |  | 34% | Cc1c(/C=N/OCc2ccc(C(=O)O)c(Br)c2)c2ccccc2n1C [Compound 9, 2-bromo-4-[({[(1E)-(1,2-dimethyl-1H-indol-3-yl)methylidene]amino}oxy)methyl]benzoic acid] |
|  |  | 54% | Cc1c(/C=N/OCCCOc2ccc(CC(=O)O)cc2)c2ccccc2n1C [Compound 7, {4-[3-({[(1E)-(1,2-dimethyl-1H-indol-3-yl)methylidene]amino}oxy)propoxy]phenyl}acetic acid] |
| 196 to 197 °C |  | 100% | O=C(O)c1ccc(OCCCO/N=C/c2cc3ccccc3n2Cc2ccccc2)c(-c2ccc(C(F)(F)F)cc2)c1 [Compound 8, 6-[3-({[(1E)-(1-benzyl-1H-indol-2-yl)methylidene]amino}oxy)propoxy]-4′-(trifluoromethyl)-1,1′-biphenyl-3-carboxylic acid] |
| 193 to 194 °C |  | 55% | O=C(O)c1ccc(OCCCO/N=C/c2cn(Cc3ccccc3)c3ccccc23)c(-c2ccc(C(F)(F)F)cc2)c1 [Compound 6, 6-[3-({[(1E)-(1-benzyl-1H-indol-3-yl)methylidene]amino}oxy)propoxy]-4′-(trifluoromethyl)-1,1′-biphenyl-3-carboxylic acid] |
